Reference: US10584115B2, “Substituted pyridine and pyrazine BMI-1 inhibitors” (PTC Therapeutics, Inc., priority 2013, dated 2020)
Read-outs that look alike come from different tables or passages of the source.

Tests used:
Bmi-1 protein = experiment: Sandwich ELISA Assay (Bmi-1 protein level in HT-1080 cells after compound treatment); assay type: cell-based
Outline: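 HT-1080 cells exposed to compounds for 40–48 h at 37 °C (0.5% DMSO final), then lysed. Bmi-1 in lysates measured by sandwich ELISA (mouse monoclonal capture, rabbit anti-Bmi-1 detection, HRP anti-rabbit, TMB), read at OD450 with OD570 reference against a recombinant Bmi-1 standard curve (0–8000 pg/mL).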

[1] = Table 1, Bmi-1 sandwich ELISA, read-out: ELISA EC50 value for Bmi-1 protein
[2] = read-out: ELISA EC50 value for Bmi-1 protein, Table 1, Bmi-1 sandwich ELISA

Compound | EC50 (Bmi-1 protein; [1]) | melting point | EC50 (Bmi-1 protein; [2])
Cc1nc2cc(F)ccc2n1-c1cncc(Nc2ccc(OC(F)F)cc2)n1 [compound 205, N-[4-(difluoromethoxy)phenyl]-6-(5-fluoro-2-methyl-1H-benzimidazol-1-yl)pyrazin-2-amine] | 10 to 100 nM | 239 to 241 °C | 
Cc1nc2cc(F)ccc2n1-c1cncc(Nc2ccc(OC(F)(F)F)cc2)n1 [compound 206, 6-(5-fluoro-2-methyl-1H-benzimidazol-1-yl)-N-[4-(trifluoromethoxy)phenyl]pyrazin-2-amine] | 100 to 3000 nM | 248 to 250 °C | 
Fc1ccc2c(c1)nc(C1CC1)n2-c1cncc(Nc2ccc(OC(F)F)cc2)n1 [compound 227, 6-(2-cyclopropyl-5-fluoro-1H-benzimidazol-1-yl)-N-[4-(difluoromethoxy)phenyl]pyrazin-2-amine] | 10 to 100 nM | 188 to 190 °C | 
Cc1nc2ccc(F)cc2n1-c1cncc(Nc2ccc(C(F)(F)F)cc2)n1 [compound 228, 6-(6-fluoro-2-methyl-1H-benzimidazol-1-yl)-N-[4-(trifluoromethyl)phenyl]pyrazin-2-amine] |  | 243 to 245 °C | 1 to 10 nM
Cc1nc2ccc(F)cc2n1-c1cncc(Nc2ccc(OC(F)F)cc2)n1 [compound 229, N-[4-(difluoromethoxy)phenyl]-6-(6-fluoro-2-methyl-1H-benzimidazol-1-yl)pyrazin-2-amine] | 1 to 10 nM | 200 to 202 °C | 
Cc1nc2ccc(F)cc2n1-c1cncc(Nc2ccc(OC(F)(F)F)cc2)n1 [compound 230, 6-(6-fluoro-2-methyl-1H-benzimidazol-1-yl)-N-[4-(trifluoromethoxy)phenyl]pyrazin-2-amine] | 10 to 100 nM | 215 to 217 °C | 
Cc1nc2ccc(F)cn2c1-c1cncc(Nc2ccc(C(F)(F)F)cc2)n1 [compound 244, 6-(6-fluoro-2-methylimidazo[1,2-a]pyridin-3-yl)-N-[4-(trifluoromethyl)phenyl]pyrazin-2-amine] | 1 to 10 nM | 160 to 162 °C | 
Cc1nc2ccc(F)cn2c1-c1cncc(Nc2ccc(OC(F)F)cc2)n1 [compound 245, N-[4-(difluoromethoxy)phenyl]-6-(6-fluoro-2-methylimidazo[1,2-a]pyridin-3-yl)pyrazin-2-amine] | 1 to 10 nM | 171 to 173 °C | 
Cc1nc2ccc(F)cn2c1-c1cncc(Nc2ccc(OC(F)(F)F)cc2)n1 [compound 246, 6-(6-fluoro-2-methylimidazo[1,2-a]pyridin-3-yl)-N-[4-(trifluoromethoxy)phenyl]pyrazin-2-amine] | 1 to 10 nM | 163 to 165 °C | 
Cc1nc2ccc(F)cn2c1-c1cc(C#N)cc(Nc2ccc(C(F)(F)F)cc2)n1 [compound 247, 2-(6-fluoro-2-methylimidazo[1,2-a]pyridin-3-yl)-6-{[4-(trifluoromethyl)phenyl]amino}pyridine-4-carbonitrile] | 1 to 10 nM | 241 to 243 °C | 
Cc1nc2ccc(F)cn2c1-c1cc(C#N)cc(Nc2ccc(OC(F)F)cc2)n1 [compound 248, 2-{[4-(difluoromethoxy)phenyl]amino}-6-(6-fluoro-2-methylimidazo[1,2-a]pyridin-3-yl)pyridine-4-carbonitrile] | 1 to 10 nM | 221 to 223 °C | 
Cc1nc2ccc(F)cn2c1-c1cc(C#N)cc(Nc2ccc(OC(F)(F)F)cc2)n1 [compound 249, 2-(6-fluoro-2-methylimidazo[1,2-a]pyridin-3-yl)-6-{[4-(trifluoromethoxy)phenyl]amino}pyridine-4-carbonitrile] | 10 to 100 nM | 209 to 210 °C | 
FC(F)(F)c1ccc(Nc2cncc(-c3c(C4CC4)nc4ccc(C(F)(F)F)cn34)n2)cc1 [compound 250, 6-[2-cyclopropyl-6-(trifluoromethyl)imidazo[1,2-a]pyridin-3-yl]-N-[4-(trifluoromethyl)phenyl]pyrazin-2-amine] |  | 240 to 241 °C | 10 to 100 nM
FC(F)(F)Oc1ccc(Nc2cncc(-c3c(C4CC4)nc4ccc(C(F)(F)F)cn34)n2)cc1 [compound 252, 6-[2-cyclopropyl-6-(trifluoromethyl)imidazo[1,2-a]pyridin-3-yl]-N-[4-(trifluoromethoxy)phenyl]pyrazin-2-amine] | 100 to 3000 nM | 213 to 215 °C | 
Cc1nn(CC(F)(F)F)c(C)c1-c1cncc(Nc2ccc(C(F)(F)F)cc2)n1 [compound 253, 6-[3,5-dimethyl-1-(2,2,2-trifluoroethyl)-1H-pyrazol-4-yl]-N-[4-(trifluoromethyl)phenyl]pyrazin-2-amine] |  | 90 to 91 °C | 1 to 10 nM
CCc1nc2ccc(F)cc2n1-c1cncc(Nc2ccc(C(F)(F)F)cc2)n1 [compound 259, 6-(2-ethyl-6-fluoro-1H-benzimidazol-1-yl)-N-[4-(trifluoromethyl)phenyl]pyrazin-2-amine] | 1 to 10 nM | 267 to 269 °C | 

Compound | EC50 (Bmi-1 protein; [1]) | melting point | EC50 (Bmi-1 protein; [2])
CCc1nc2ccc(F)cc2n1-c1cncc(Nc2ccc(OC(F)F)cc2)n1 [compound 260, N-[4-(difluoromethoxy)phenyl]-6-(2-ethyl-6-fluoro-1H-benzimidazol-1-yl)pyrazin-2-amine] | 1 to 10 nM | 205 to 207 °C | 
Cc1nc2ccc(F)cc2n1-c1cc(C#N)cc(Nc2ccc(C(F)(F)F)cc2)n1 [compound 261, 2-(6-fluoro-2-methyl-1H-benzimidazol-1-yl)-6-{[4-(trifluoromethyl)phenyl]amino}pyridine-4-carbonitrile] | 10 to 100 nM | 223 to 225 °C | 
Cc1nc2ccc(F)cc2n1-c1cc(C#N)cc(Nc2ccc(OC(F)F)cc2)n1 [compound 262, 2-{[4-(difluoromethoxy)phenyl]amino}-6-(6-fluoro-2-methyl-1H-benzimidazol-1-yl)pyridine-4-carbonitrile] | 10 to 100 nM | 231 to 232 °C | 
Cc1nn(C)c(C)c1-c1cc(C#N)cc(Nc2ccc(C(F)(F)F)cc2)n1 [compound 263, 2-{[4-(trifluoromethyl)phenyl]amino}-6-(1,3,5-trimethyl-1H-pyrazol-4-yl)pyridine-4-carbonitrile] | 1 to 10 nM | 182 to 183 °C | 
Cc1nn(C)c(C)c1-c1cc(C#N)cc(Nc2ccc(OC(F)F)cc2)n1 [compound 264, 2-{[4-(difluoromethoxy)phenyl]amino}-6-(1,3,5-trimethyl-1H-pyrazol-4-yl)pyridine-4-carbonitrile] | 1 to 10 nM | 144 to 145 °C | 
Cc1nn(C)c(C)c1-c1cc(C#N)cc(Nc2ccc(OC(F)(F)F)cc2)n1 [compound 265, 2-{[4-(trifluoromethoxy)phenyl]amino}-6-(1,3,5-trimethyl-1H-pyrazol-4-yl)pyridine-4-carbonitrile] | 10 to 100 nM | 135 to 136 °C | 
CC(=O)n1nc(C)c(-c2cncc(Nc3ccc(C(F)(F)F)cc3)n2)c1C [compound 277, 1-[3,5-dimethyl-4-(6-{[4-(trifluoromethyl)phenyl]amino}pyrazin-2-yl)-1H-pyrazol-1-yl]ethanone] | 100 to 3000 nM | 199 to 200 °C | 
CCOC(=O)n1nc(C)c(-c2cncc(Nc3ccc(C(F)(F)F)cc3)n2)c1C [compound 278, ethyl 3,5-dimethyl-4-(6-{[4-(trifluoromethyl)phenyl]amino}pyrazin-2-yl)-1H-pyrazole-1-carboxylate] | 100 to 3000 nM | 122 to 123 °C | 
CCOC(=O)n1nc(C)c(-c2cncc(Nc3ccc(OC(F)F)cc3)n2)c1C [compound 279, ethyl 4-(6-{[4-(difluoromethoxy)phenyl]amino}pyrazin-2-yl)-3,5-dimethyl-1H-pyrazole-1-carboxylate] | 100 to 3000 nM | 92 to 93 °C | 
Cc1c(-c2cncc(Nc3ccc(OC(F)(F)F)cc3)n2)c(C(F)(F)F)nn1C [compound 281, 6-[1,5-dimethyl-3-(trifluoromethyl)-1H-pyrazol-4-yl]-N-[4-(trifluoromethoxy)phenyl]pyrazin-2-amine] | 100 to 3000 nM | 157 to 158 °C | 
Cc1nc2ccc(F)cn2c1-c1cncc(Nc2ccc(C(F)(F)F)c(F)c2)n1 [compound 310, 6-(6-fluoro-2-methylimidazo[1,2-a]pyridin-3-yl)-N-[3-fluoro-4-(trifluoromethyl)phenyl]pyrazin-2-amine] | 10 to 100 nM | 216 to 218 °C | 
Cc1nc2ccc(F)cn2c1-c1cc(C#N)cc(Nc2ccc(OC(F)F)c(F)c2)n1 [compound 311, 2-{[4-(difluoromethoxy)-3-fluorophenyl]amino}-6-(6-fluoro-2-methylimidazo[1,2-a]pyridin-3-yl)pyridine-4-carbonitrile] | 1 to 10 nM | 231 to 233 °C | 
Cc1nc2ccc(F)cn2c1-c1cc(C#N)cc(Nc2ccc(C(F)(F)F)c(F)c2)n1 [compound 312, 2-(6-fluoro-2-methylimidazo[1,2-a]pyridin-3-yl)-6-{[3-fluoro-4-(trifluoromethyl)phenyl]amino}pyridine-4-carbonitrile] | 10 to 100 nM | 245 to 249 °C | 
Cc1nc2ccc(F)cn2c1-c1cc(N)cc(Nc2ccc(OC(F)F)c(F)c2)n1 [compound 315, N^2-[4-(difluoromethoxy)-3-fluorophenyl]-6-(6-fluoro-2-methylimidazo[1,2-a]pyridin-3-yl)pyridine-2,4-diamine] | 1 to 10 nM | 182 to 183 °C | 
Cc1nc2ccc(F)cn2c1-c1cc(N)cc(Nc2ccc(C(F)(F)F)cc2)n1 [compound 316, 6-(6-fluoro-2-methylimidazo[1,2-a]pyridin-3-yl)-N^2-[4-(trifluoromethyl)phenyl]pyridine-2,4-diamine] |  | 161 to 163 °C | 1 to 10 nM
